Article PMC10218498, “Exploring BenzylethoxyAryl Urea Scaffolds for Multitarget Immunomodulation Therapies” (International Journal of Molecular Sciences, 2023)
Where two headings read alike, the source gives them in different places.

Key:
[1] = tested on: MCF-7 (Human breast cancer adenocarcinoma); assay: MTT cell proliferation assay, MCF-7; type: cell-based; details: for IC50: Homo sapiens; for SI (MCF-7): selectivity index vs HEK-293
Protocol: (§1) The 3-(4,5-dimethylthiazol-2-yl)-2,5-diphenyltetrazolium bromide (MTT; Sigma Chemical Co.) dye reduction assay in 96-well microplates was used. […] After that, the supernatant was discarded and replaced by 100 µL of DMSO to dissolve formazan crystals. The absorbance was then read at 550 nm by spectrophotometry. For all concentrations of compound, cell viability was expressed as the percentage of the ratio between the mean absorbance of treated cells and the mean absorbance of untreated cells. Three independent experiments were performed, and the IC50 values (i.e., concentration half inhibiting cell proliferation) were graphically determined using GraphPad Prism 4 software.

HT-29 cells = assay: Cancer cell viability in monoculture and co-cultures with THP-1 by flow cytometry; type: cell-based, human; details: for morphological changes of HT-29 cells: 48 h co-culture with THP-1 at (1:5); for viability at 20 µM: Homo sapiens
Protocol: We also studied the effect of the selected compounds on tumor cell proliferation in the presence of human monocytic leukemia cell line THP-1. This assay was carried out using HT-29 as the cancer cell line and different proportions of immune cells. Standard proportions for this assay were 1:5 cancer/immune cells. Additionally, we also carried out this assay using a 2:1 proportion of cancer cells as regards immune THP-1 cells. Assays were performed after 24 and 48 h of treatment, using 20 μM doses of selected compounds and BMS-8 as the reference compound.
First, to study the effect of the compounds on the cell viability in monoculture, 10^5 of cancer cell line per well were seeded and incubated for 24 h; then, the corresponding compound at 20 μM or DMSO for the positive control were added. After 24 h of incubation, cancer cells were collected with trypsin and fixed with 4% in PBS paraformaldehyde and counted by flow cytometry.
On the other hand, to study the effect of the compounds on the cell viability in co-culture with THP-1 cells, 10^5 or 2 × 10^5 of the HT-29 cells line per well were seeded and incubated for 24 h, then the medium was changed by one cell culture medium supplemented with IFN-γ (10 ng/mL; human, Invitrogen®, Waltham, MA, USA) and containing 5 × 10^5 or 105, respectively, of THP-1 per well and the corresponding compound at 20 μM or DMSO for the positive control. After 24 h/48 h of incubation, supernatants were collected to determine THP-1 living cells. Additionally, stain cancer cells were collected with trypsin. Both types of suspension cells were fixed with 4% in PBS paraformaldehyde and counted by flow cytometry.

CD80 = CD80 relative quantification by flow cytometry in co-cultured THP-1; type: cell-based, human; details: 20 μM, related to non-treated cells
Protocol: Reducing the expression of CD11b has become a promising target for immune modulation in anti-cancer therapies. For that reason, we decided to study the effect of our compounds on CD11b in THP-1 cells co-cultured with HT-29. We also determine the relative amount of CD80, a common surface marker for monocytes. This study was performed on the collected cell culture from each well and gating living THP-1 cell population.
To study the effect of the compounds on every biological target in co-cultured THP-1 immune cells with cancer cell line HT-29, the compounds were incubated for 24 h/48 h as described before.
To detect membrane CD11b and CD80, after the cell incubation, suspended THP-1 was collected from the cell culture of each sample well, fixed with 4% in PBS paraformaldehyde, and stained with FITC Mouse monoclonal Anti-Human CD80 (Sigma-Aldrich, S. Louis, MO, USA, SAB4700142) and Alexa Fluor® 647 Rabbit monoclonal Anti-CD11b (Merck, S. Louis, MO, USA, #MABF366).

PD-L1 = PD-L1 (Homo sapiens, UniProt Q9NZQ7); assay: PD-L1 relative quantification by flow cytometry in A-549; type: cell-based; parameters: endogenous in cells; host or cells: A-549; details: A-549, 20 µM, 24 h, relative to DMSO control = 100
Protocol: To assess the effect of the selected compounds on the biological targets PD-L1 and VEFGR-2, we performed the study on both cancer cell lines HT-29 and A-549 and by flow cytometry technique. […] For these assays, cells were incubated for 24 h in the presence of the corresponding compounds at 20 µM concentration.
To study the effect of the compounds on every biological target in cancer cell lines, the compounds were used at 20 µM dose.
For the assay, 10^5 cells per well were incubated for 24 h with the corresponding dose of the tested compound in a total volume of 500 μL of their growth media.
On the one hand, to detect total PD-L1 and VEGFR-2, after the cell treatments, they were collected and fixed with 4% in PBS paraformaldehyde. After fixation, a treatment with 0.5% in PBS TritonTM X-100 was performed, and finally, cells were stained with FITC Mouse monoclonal Anti-Human VEGFR-2 (ab184903) and Alexa Fluor® 647 Rabbit monoclonal Anti-PD-L1 (ab215251).
On the other hand, to detect membrane PD-L1 and VEGFR-2, the process was the same, avoiding the treatment with 0.5% in PBS TritonTM X-100 step.

[2] = tested on: HT-29 (colon adenocarcinoma); assay: MTT cell proliferation assay, HT-29; type: cell-based, human; details: for IC50: Homo sapiens, read-out: IC50 HT-29; for SI (HT-29) (IC50HEK293/IC50HT-29): selectivity index
Protocol: as §1

[3] = MCF7, MTT, read-out: IC50 (μM) MCF-7
[4] = HT-29 monoculture, 20 μM, read-out: cancer cell viability (%), Monocult. HT-29
[5] = co-culture 1:5 HT-29/THP-1, 20 μM, 24 h, read-out: cancer cell viability (%), 1:5 HT-29/THP-1, 24 h
[6] = co-culture 1:5 HT-29/THP-1, 20 μM, 48 h, read-out: cancer cell viability (%), 1:5 HT-29/THP-1, 48 h
[7] = co-culture 2:1 HT-29/THP-1, 20 μM, 24 h, read-out: cancer cell viability (%), 2:1 HT-29/THP-1, 24 h
[8] = co-culture 2:1 HT-29/THP-1, 20 μM, 48 h, read-out: cancer cell viability (%), 2:1 HT-29/THP-1, 48 h
[9] = membrane THP-1, 1:5 HT-29/THP-1, 24 h
[10] = membrane THP-1, 2:1 HT-29/THP-1, 48 h
[11] = co-culture (1:5) HT-29/THP-1, 24 h, 20 μM
[12] = co-culture (2:1) HT-29/THP-1, 24 h, 20 μM

Sequence of PD-L1 (Q9NZQ7 19-290): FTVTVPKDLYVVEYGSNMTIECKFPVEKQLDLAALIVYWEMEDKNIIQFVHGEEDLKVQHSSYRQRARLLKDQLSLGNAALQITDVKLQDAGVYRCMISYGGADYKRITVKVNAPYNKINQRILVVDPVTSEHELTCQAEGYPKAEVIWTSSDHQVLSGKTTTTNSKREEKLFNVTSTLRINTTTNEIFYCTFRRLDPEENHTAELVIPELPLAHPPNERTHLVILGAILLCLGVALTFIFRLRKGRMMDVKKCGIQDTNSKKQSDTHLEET

SMILES | IC50 [1, 3] [µM] | SI (MCF-7) [1] | morphological changes of HT-29 cells (HT-29 cells; 20 μM) | viability at 20 µM (HT-29 cells; [4]) [%] | viability at 20 µM (HT-29 cells; [5]) [%] | viability at 20 µM (HT-29 cells; [6]) [%] | viability at 20 µM (HT-29 cells; [7]) [%] | viability at 20 µM (HT-29 cells; [8]) [%] | % CD80 (CD80; [9]) [%] | % CD80 (CD80; [10]) [%] | Total PD-L1 (%) (PD-L1) | IC50 ([2]; HT-29, MTT, 48 h of treatment) [µM] | SI (HT-29) (IC50HEK293/IC50HT-29) [2] | inhibition of cell viability (HT-29) (HT-29 cells; [11]) [%] | inhibition of cell viability (HT-29) (HT-29 cells; [12]) [%] | cancer cell viability (%), 2:1 HT-29/THP-1, 48 h (HT-29 cells; co-culture 2:1 HT-29/THP-1, 20 μM, 48 h) | IC50 ([1]; MCF7, read-out: IC50 (μM) MCF-7) [µM] | IC50 ([2]; HT-29, 48 h) [µM]
Cc1c(COc2ccc(CN3CCCCC3C(=O)O)cc2Br)cccc1-c1ccccc1 (stereo not drawn) [BMS-8, reference compound] | 20 ± 3 | 3 | retained this epithelial nature, resulting in an increased and brighter cytosolic granulation | 102 ± 23 | 88 ± 3 | 102 ± 12 | 106 ± 10 | 101 ± 3 | 101 ± 6 | 101 ± 6 | 96 ± 29 | 19 ± 2 | 3 | – | – | – | – | –
COc1ccc(COc2cccc(NC(=O)Nc3ccc(F)cc3)c2)cc1 [Compound 2] | 0.17 ± 0.03 | >580 | less confluent cultures with a few elongated fibroblast-like appearance cells | 89 ± 7 | 80 ± 4 | 102 ± 16 | 83 ± 5 | 95 ± 5 | 99 ± 5 | 105 ± 1 | 107 ± 13 | 5.5 ± 1.2 | >18 | 20 | 20 | – | – | –
COc1ccc(COc2cccc(NC(=O)Nc3ccc(Br)cc3)c2)cc1 [Compound 8] | 1.3 ± 0.4 | >77 | less confluent cultures with a few elongated fibroblast-like appearance cells | 86 ± 9 | 83 ± 13 | 106 ± 8 | 95 ± 16 | 92 ± 20 | 95 ± 9 | 103 ± 2 | 80 ± 7 | 11 ± 1 | >9 | – | – | – | – | –
COc1ccc(COc2cccc(NC(=O)Nc3ccc(OC)cc3)c2)cc1 [Compound 11] | > 200 | – | less confluent cultures with a few elongated fibroblast-like appearance cells | 95 ± 21 | 86 ± 4 | 119 ± 14 | 88 ± 3 | 85 ± 11 | 102 ± 6 | 103 ± 2 | 135 ± 18 | 2 ± 1.2 | >50 | 20 | 20 | active | – | –
COc1ccc(COc2cccc(NC(=O)Oc3ccccc3)c2)cc1 [Compound 14] | – | >5 | slight loss of cell-to-cell contact and the appearance of clustered cells with irregular surfaces | 82 ± 4 | 90 ± 6 | 97 ± 5 | 88 ± 9 | 85 ± 14 | 99 ± 6 | 102 ± 1 | 141 ± 1 | – | >15 | – | – | – | 20 ± 9 | 6.8 ± 0.5
